Experimental data: paper PMC7297817, “Pharmacological Characterization of a Betaine/GABA Transporter 1 (BGT1) Inhibitor Displaying an Unusual Biphasic Inhibition Profile and Anti-seizure Effects” (Neurochemical Research, 2020)
Like-named read-outs stand apart in the source and are kept apart here.

Key:
mBGT1 = biological target: T1, mBGT1 (Mus musculus, UniProt P31651); experiment: [3H]GABA uptake at mBGT1 stably expressed in HEK-293 cells; assay type: cell-based
T1 construct: expressed in transfected cells
T1 sequence (P31651 1-614): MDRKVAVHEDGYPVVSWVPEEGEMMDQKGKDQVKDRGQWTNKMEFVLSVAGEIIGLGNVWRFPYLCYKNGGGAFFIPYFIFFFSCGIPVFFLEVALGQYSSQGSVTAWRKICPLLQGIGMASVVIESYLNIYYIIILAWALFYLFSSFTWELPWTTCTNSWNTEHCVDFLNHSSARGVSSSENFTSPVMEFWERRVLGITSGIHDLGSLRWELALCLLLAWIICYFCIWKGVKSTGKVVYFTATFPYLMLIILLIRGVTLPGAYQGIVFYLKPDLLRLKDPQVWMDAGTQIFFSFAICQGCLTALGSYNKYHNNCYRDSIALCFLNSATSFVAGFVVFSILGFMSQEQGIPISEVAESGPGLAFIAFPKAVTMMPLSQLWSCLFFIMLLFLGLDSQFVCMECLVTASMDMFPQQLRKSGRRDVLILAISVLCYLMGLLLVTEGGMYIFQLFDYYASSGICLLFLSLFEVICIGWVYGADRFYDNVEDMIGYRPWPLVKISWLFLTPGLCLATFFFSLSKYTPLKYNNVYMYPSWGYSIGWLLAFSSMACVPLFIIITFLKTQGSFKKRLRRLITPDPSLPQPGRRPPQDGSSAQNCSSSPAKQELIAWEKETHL
Description: (§1) The HEK-293 and Flp-In CHO cell lines stably expressing mouse (m) and human (h) GATs, respectively, have been described previously and were cultured accordingly. The tsA201 cell line was used for transient expression while the MDCK II cell line express BGT1 endogenously. Both cell lines were cultured as described. tsA201 cells were transfected with DNA constructs (8 μg per 10 cm dish if not otherwise mentioned) using 40 μL PolyFect transfection reagent according to the manufacturer’s protocol (Qiagen, Venlo, Netherlands). The DNA constructs encoding hBGT1, hGAT1-3 [36], the mutated constructs hBGT1 Q299 and hGAT3 L314Q described previously, and hBGT Y453A were synthesized and sequence validated by Genscript (NJ, USA).
(§2) The [^3H]GABA competition uptake assay was performed as previously described. A minor change, however, was introduced for uptake in MDCK II cells, in which 100 nM [^3H]GABA was used for a 15 min incubation period at 37 °C instead of 30 nM [^3H]GABA and 3 min incubation. Studies related to the inhibition curves with GABA and BPDBA at hBGT1 were obtained both with and without the presence of 10 μM ATP during the [^3H]GABA uptake assay.
(§3) The [^3H]GABA uptake data was normalized to the percentage of total uptake in the individual experiments in the presence of the lowest compound concentration or no compound present. Data presented is the pooled data of at least three independent experiments with three technical replicates. Concentration–response curves (CRCs) were fitted with GraphPad Prism (version 8.2.1, Yosemite, GraphPad Software, San Diego, CA, USA) by non-linear regression to the sigmoidal concentration response model: Y=Bottom+(Top-Bottom)/1+10^LogIC50-X∗nH where Top is the Top plateau, Bottom is the Bottom plateau, X is the logarithm of the concentration of the compound, LogIC50 is the concentration giving a response halfway between Top and Bottom,and nH is the Hill slope.
(§4) The best fit for CRCs obtained with the [^3H]GABA uptake assay was identified by the extra-sum-of-squares F test (for convenience referred to as F test).

hGAT3 = biological target: T2, hGAT3 (Homo sapiens, UniProt P48066); experiment: [3H]GABA uptake at hGAT3 stably expressed in CHO cells; assay type: cell-based; details: N=3
T2 construct: expressed in transfected cells
T2 sequence (P48066 1-632): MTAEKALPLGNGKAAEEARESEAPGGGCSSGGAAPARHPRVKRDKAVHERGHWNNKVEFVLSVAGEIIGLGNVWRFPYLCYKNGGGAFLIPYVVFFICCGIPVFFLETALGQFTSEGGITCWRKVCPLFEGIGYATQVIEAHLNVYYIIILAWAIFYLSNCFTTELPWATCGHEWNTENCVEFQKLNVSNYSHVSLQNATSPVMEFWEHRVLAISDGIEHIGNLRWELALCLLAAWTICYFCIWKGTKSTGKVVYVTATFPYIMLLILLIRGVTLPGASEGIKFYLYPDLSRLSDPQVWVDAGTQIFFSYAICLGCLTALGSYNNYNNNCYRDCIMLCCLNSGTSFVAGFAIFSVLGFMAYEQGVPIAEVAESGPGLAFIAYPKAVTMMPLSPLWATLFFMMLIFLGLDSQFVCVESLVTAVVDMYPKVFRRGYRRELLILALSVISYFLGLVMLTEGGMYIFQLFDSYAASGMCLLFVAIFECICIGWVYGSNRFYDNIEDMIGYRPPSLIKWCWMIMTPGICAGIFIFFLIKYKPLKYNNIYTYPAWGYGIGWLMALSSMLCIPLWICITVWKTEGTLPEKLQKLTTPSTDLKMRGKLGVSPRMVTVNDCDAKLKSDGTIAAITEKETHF
Description: as §1, §2, §3, §4

5-HT1D = biological target: T3, 5-HT1D (Homo sapiens, UniProt P28221); experiment: NIMH PDSP radioligand binding, 5-HT1D; details: radioligand [3H]GR125743, n=4
T3 construct: purchased NIMH Psychoactive Drug Screening Program (PDSP)
T3 sequence (P28221 whole entry): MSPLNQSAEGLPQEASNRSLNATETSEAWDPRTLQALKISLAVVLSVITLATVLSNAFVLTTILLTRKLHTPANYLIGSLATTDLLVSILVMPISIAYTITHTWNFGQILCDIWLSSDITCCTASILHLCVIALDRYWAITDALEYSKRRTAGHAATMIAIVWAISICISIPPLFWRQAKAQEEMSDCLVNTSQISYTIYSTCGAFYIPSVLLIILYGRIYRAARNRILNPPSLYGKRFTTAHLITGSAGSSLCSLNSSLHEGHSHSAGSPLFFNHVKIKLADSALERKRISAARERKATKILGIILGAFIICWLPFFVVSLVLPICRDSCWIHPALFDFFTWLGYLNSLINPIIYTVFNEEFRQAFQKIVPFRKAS

5-HT2C = biological target: T4, 5-HT2C (Homo sapiens, UniProt P28335); experiment: NIMH PDSP radioligand binding, 5-HT2C; details: radioligand [3H]mesulergine
T4 construct: NIMH PDSP (screening service)
T4 sequence (P28335 33-458, species assumed): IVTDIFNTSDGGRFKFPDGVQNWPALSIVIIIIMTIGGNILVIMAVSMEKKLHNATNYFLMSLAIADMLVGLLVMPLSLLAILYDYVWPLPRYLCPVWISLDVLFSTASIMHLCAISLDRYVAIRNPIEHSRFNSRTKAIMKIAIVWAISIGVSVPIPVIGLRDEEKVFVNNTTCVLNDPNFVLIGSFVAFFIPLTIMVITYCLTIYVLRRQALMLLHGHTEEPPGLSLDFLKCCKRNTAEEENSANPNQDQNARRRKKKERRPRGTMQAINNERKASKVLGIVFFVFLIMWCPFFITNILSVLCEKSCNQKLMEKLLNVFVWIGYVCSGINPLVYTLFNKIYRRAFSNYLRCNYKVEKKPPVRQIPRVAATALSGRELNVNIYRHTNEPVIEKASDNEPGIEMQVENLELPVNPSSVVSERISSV

5-HT6 = biological target: T5, 5-HT6 (Homo sapiens, UniProt P50406); experiment: NIMH PDSP radioligand binding, 5-HT6; details: radioligand [3H]LSD, n=4
T5 construct: NIMH PDSP (screening service)
T5 sequence (P50406 whole entry, species assumed): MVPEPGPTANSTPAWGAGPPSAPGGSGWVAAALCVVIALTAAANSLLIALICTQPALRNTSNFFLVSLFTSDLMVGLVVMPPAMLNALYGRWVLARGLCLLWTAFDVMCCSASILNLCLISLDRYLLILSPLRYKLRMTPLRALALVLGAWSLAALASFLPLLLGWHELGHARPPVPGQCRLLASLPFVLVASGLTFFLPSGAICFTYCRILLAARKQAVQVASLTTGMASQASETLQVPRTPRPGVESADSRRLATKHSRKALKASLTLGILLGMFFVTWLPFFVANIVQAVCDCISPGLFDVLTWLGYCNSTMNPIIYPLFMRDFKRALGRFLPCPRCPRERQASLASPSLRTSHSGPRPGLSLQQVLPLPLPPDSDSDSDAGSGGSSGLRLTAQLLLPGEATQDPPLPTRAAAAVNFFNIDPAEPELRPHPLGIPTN

D2 = biological target: T6, D2 (Homo sapiens, UniProt P14416); experiment: NIMH PDSP radioligand binding, D2; details: radioligand [3H]N-methylspiperone, n=4
T6 construct: purchased NIMH Psychoactive Drug Screening Program (PDSP)
T6 sequence (P14416 whole entry): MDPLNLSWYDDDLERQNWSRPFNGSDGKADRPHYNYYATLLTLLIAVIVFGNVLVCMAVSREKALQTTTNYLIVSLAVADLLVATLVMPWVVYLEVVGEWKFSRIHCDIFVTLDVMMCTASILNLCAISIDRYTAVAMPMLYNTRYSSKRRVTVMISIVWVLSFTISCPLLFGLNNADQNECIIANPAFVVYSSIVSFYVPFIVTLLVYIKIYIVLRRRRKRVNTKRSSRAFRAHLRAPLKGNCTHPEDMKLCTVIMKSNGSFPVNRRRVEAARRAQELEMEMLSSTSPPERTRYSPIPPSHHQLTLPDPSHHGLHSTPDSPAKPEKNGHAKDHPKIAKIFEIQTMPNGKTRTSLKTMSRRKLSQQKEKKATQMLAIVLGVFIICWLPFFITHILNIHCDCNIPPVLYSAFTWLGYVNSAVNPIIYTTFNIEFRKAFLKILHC

Sigma1 = Sigma1 (Cavia porcellus, UniProt Q60492); experiment: NIMH PDSP radioligand binding, Sigma1; details: radioligand [3H]pentazocine(+), n=4
Chain of Sigma1 (Q60492 whole entry): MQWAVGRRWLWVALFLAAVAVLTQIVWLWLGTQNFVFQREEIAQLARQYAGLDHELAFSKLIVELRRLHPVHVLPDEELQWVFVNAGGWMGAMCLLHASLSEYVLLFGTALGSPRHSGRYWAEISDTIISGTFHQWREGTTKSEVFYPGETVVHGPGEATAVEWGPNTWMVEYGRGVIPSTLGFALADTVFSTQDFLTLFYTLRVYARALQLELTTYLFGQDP
Description: (§5) IC50 values in μM (Ki μM)^a. The targets in bold were inhibited by >35% at 10 μM.

Alpha1B = biological target: T7, Alpha1B (Homo sapiens, UniProt P35368); experiment: NIMH PDSP radioligand binding, Alpha1B; details: radioligand [3H]prazosine, n=4
T7 construct: purchased NIMH Psychoactive Drug Screening Program (PDSP)
T7 sequence (P35368 whole entry): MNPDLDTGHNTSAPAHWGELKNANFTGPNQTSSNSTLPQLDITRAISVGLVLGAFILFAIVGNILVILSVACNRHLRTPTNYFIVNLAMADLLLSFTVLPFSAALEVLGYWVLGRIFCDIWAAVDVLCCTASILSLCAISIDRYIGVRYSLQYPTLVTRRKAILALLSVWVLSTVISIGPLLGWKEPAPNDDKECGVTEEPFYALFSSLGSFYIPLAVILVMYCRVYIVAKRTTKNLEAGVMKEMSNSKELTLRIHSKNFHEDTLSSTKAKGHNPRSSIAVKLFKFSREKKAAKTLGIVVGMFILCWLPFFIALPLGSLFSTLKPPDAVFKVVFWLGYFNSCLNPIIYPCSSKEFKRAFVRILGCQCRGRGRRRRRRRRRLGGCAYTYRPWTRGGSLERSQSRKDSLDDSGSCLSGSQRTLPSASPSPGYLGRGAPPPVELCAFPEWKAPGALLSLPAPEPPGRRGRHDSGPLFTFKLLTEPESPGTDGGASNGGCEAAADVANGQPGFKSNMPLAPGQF

Beta1 = biological target: T8, Beta1 (Homo sapiens, UniProt P08588); experiment: NIMH PDSP radioligand binding, Beta1; details: radioligand [125I]pindolol, n=4
T8 construct: purchased NIMH Psychoactive Drug Screening Program (PDSP)
T8 sequence (P08588 whole entry): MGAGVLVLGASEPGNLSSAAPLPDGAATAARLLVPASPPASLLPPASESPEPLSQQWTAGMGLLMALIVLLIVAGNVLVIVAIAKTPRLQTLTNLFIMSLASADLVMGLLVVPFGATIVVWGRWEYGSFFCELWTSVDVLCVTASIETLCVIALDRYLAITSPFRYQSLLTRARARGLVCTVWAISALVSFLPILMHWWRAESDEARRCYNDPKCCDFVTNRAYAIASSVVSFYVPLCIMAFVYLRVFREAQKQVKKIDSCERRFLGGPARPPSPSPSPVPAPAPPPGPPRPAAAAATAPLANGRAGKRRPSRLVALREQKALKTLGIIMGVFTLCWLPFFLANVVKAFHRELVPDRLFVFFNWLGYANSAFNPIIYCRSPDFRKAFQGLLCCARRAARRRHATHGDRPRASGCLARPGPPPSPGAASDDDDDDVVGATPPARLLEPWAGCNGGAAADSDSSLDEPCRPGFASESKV

BZP rat brain = experiment: NIMH PDSP radioligand binding, BZP rat brain; details: 10 μM; radioligand [3H]Flunitrazepam; n=4
Description: as §5

M2 = biological target: T9, M2 (Homo sapiens, UniProt P08172); experiment: NIMH PDSP radioligand binding, M2
T9 construct: purchased NIMH Psychoactive Drug Screening Program (PDSP)
T9 sequence (P08172 whole entry): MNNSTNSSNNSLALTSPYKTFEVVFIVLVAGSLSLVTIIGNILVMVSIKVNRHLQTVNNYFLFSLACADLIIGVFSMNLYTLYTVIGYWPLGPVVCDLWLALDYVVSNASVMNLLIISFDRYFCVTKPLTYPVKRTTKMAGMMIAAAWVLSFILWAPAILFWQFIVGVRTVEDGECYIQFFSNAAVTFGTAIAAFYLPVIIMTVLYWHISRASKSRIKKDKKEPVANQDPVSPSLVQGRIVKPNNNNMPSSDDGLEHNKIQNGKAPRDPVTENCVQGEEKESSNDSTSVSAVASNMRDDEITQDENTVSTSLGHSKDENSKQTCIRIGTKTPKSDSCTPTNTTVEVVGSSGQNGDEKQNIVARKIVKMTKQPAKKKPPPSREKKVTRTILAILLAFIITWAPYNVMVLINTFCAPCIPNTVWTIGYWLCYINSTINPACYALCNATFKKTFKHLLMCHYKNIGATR

Cc1ccsc1C(=CCCN(C)[C@H]1CCCC[C@H]1C(=O)O)c1sccc1C [SBV2-114, (1R,2S)-2-((4,4-bis(3-methylthiophen-2-yl)but-3-en-yl)(methyl)amino)cyclohexanecarboxylic acid]
IC50 (mBGT1): 3.8 µM | % inhibition (Frac value) at the low IC50 (mBGT1; biphasic fit): 45% | Fit (mBGT1; preferred model, extra-sum-of-squares F test, N=5): Biphasic | IC50 (mBGT1; read-out: IC50, low affinity component (high IC50), biphasic fit, 30 nM [3H]GABA, 3 min, HEK-293): 408 µM | Frac (hGAT3; biphasic fit, CHO): 0.09 | IC50 (hGAT3; biphasic fit, CHO, read-out: IC50, high affinity component): 2.09 µM | Fit (hGAT3; preferred model): Biphasic | IC50 (hGAT3; read-out: IC50, low affinity component, biphasic fit, CHO): 603 µM | inhibition at 10 µM (5-HT1D): 19.6% | inhibition at 10 µM (5-HT2C; 10 μM, n=4): 77.5% | Ki (5-HT2C; full curve): 0.67 µM | inhibition at 10 µM (5-HT6): 50% | inhibition at 10 µM (D2): 12.3% | inhibition at 10 µM (Sigma1): 55.6% | inhibition at 10 µM (Alpha1B): 1.9% | inhibition at 10 µM (Beta1): 37.9% | % inhibition (BZP rat brain): 9.1% | inhibition at 10 µM (M2): -1.9%
